The text below walks through data of patent US9868705B2, “Tetra-aryl cyclobutane inhibitors of androgen receptor action for the treatment of hormone refractory cancer” (The Board of Trustees of the University of Illinois, priority 2013, dated 2018).

Usually IC50 stands for the concentration needed to halve the response being measured.

In experiment [1] the target is T1, wild type AR (Homo sapiens, UniProt P10275).
T1 construct: expressed in transfected cells; host or cells: CV-1
T1 sequence (P10275 1-920): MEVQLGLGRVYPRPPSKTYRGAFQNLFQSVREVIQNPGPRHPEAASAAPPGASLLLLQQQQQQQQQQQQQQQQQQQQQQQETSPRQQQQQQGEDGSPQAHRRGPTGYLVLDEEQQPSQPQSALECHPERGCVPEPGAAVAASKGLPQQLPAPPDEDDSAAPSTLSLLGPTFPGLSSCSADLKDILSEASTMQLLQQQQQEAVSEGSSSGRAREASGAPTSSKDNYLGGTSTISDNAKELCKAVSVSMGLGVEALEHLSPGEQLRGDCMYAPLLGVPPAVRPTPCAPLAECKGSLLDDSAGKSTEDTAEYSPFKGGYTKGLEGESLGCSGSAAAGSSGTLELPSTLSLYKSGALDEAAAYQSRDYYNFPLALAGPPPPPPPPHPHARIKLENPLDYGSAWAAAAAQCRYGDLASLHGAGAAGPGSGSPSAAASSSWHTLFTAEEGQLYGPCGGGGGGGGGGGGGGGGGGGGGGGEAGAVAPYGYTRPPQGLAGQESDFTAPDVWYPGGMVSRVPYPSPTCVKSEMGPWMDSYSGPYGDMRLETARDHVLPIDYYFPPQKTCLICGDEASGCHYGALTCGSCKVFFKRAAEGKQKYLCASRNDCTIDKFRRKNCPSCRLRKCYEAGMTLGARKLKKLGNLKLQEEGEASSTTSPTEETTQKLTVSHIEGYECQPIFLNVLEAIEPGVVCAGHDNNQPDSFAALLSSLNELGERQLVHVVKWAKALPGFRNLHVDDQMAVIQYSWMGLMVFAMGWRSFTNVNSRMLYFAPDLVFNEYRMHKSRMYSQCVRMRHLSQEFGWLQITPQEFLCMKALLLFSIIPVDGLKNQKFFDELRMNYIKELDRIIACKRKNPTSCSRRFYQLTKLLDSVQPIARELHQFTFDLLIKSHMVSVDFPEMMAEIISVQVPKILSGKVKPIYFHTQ
The experiment in a line: MMTV-luciferase transcription assay in CV-1 cells, wild type AR. In kind it is cell-based. The conditions noted are these: wild type AR; values given in μM; read-out: MMTV transcription assay in CV-1 cells WT (IC50). An excerpt: (§1) These compounds were screened using an AR-responsive MMTV transcription assay in CV-1 cells, utilizing both wild type and T877A (LNCaP) AR. […]

For experiment [2], the target named is T2, T877A (LNCaP) AR (Homo sapiens, UniProt P10275, T878A).
T2 construct: expressed in transfected cells; host or cells: CV-1
T2 sequence (P10275 1-920 T878A): T1 sequence (P10275 1-920) with T878A
Kind of experiment: MMTV-luciferase transcription assay in CV-1 cells, T877A AR. In kind it is cell-based.
Description: as §1

Changes are numbered by the printed parent chain. Like-named read-outs stand apart in the source and are kept apart here.

`COc1cc([C@H]2[C@H](c3ccccc3)[C@H](c3cc(OC)nc(OC)n3)[C@H]2c2ccccc2)nc(OC)n1` [CB-22]: the IC50 in experiment [1] amounted to 18 µM; in experiment [2] (CV1 transient transfection, MMTV-Luciferase reporter, read-out: IC50 T877A), 0.81 µM; in experiment [2] (T877A AR, values given in μM, read-out: MMTV transcription assay in CV-1 cells T877A (IC50)), 1.1 µM. Moreover, the “increase in potency for T877A mutant over WT” value in experiment [2] (AR-dependent luciferase transcription assay in CV-1 cells) is on record as “approximately 10 fold”.
